Columns and labels:
[1] = system: rats with controlled cortical impact (CCI) injury; assay: Beam walk test after CCI injury; format: in vivo, rat
Procedure: A previously described CCI injury procedure was utilized (Chen et al., 2003). Male Sprague-Dawley rats, which have body weight of 250-300 g, were anaesthetized with sodium pentobarbital (i.p.; 50 mgkg^−1; Rhone Merieux, Harlow, UK) and placed in a stereotaxic frame. A 5-mm craniotomy was performed over the left parietal cortex, centered on the coronal suture and 3 mm lateral to the sagittal suture. Considerable care was taken to avoid injury to the underlying dura. Injury was made using a pneumatic piston with a rounded metal tip (2.5 mm diameter) that was angled 22.5° C. to the vertical so that the tip was perpendicular with the brain surface at the centre of the craniotomy. A velocity of 4 ms^−1 and a deformation depth 2 mm below the dura were used. The bone flap was immediately replaced and sealed, and the scalp was closed with sutures. Body temperature was monitored throughout the surgery by a rectal probe; temperature was maintained at 37.0±0.5° C. using a heated pad. Rats were placed in a heated cage to maintain body temperature, while recovering from anaesthesia. Baicalein (30 mg kg^−1) dissolved in 10% dimethyl sulphoxide (0.25-0.3 mL) or a corresponding volume of vehicle (10% dimethyl sulphoxide) was administered i.p. immediately following injury or daily for 4 days (immediately, 25, 49 and 73 h) after injury. Behaviour testing using the rotarod, tactile adhesive removal, mNSS and beam walk tests was performed at 28 hours as well as 4, 7, 14, 21 and 28 days post-injury. At 14 and 28 days, the animals were killed, perfused intravascularly and their brains were processed with cresyl violet staining to assess contusion volume (n=8 for each group). […] Behaviour testing was performed before CCI and at […] by an observer who was unaware of the experimental treatments. The battery of tests consisted of the rotarod motor test, tactile adhesive-removal somatosensory test, mNSS and beam walk test. Animals were pretrained for 3 days for the rotarod, tactile adhesiveremoval somatosensory and beam walk tests (see below). The beam walk test was utilized to evaluate fine motor coordination and function (Feeney et al., 1982). Rats escaped from a bright light and loud white noise by walking along a narrowed wooden beam (2.5×122.0 cm) to enter a darkened goal box at the opposite end of the beam. The latency for the rat to reach the goal box (not to exceed 60 s) and hindlimb performance as he traversed the beam (based on a 1-7 rating scale) were recorded. A score of 7 was given when animals traversed the beam with two or less foot slips. A score of 6 was given when animals traversed the beam with less than 50% foot slips. A score of 5 was given for more than 50% but less than 100% foot slips. A score of 4 was given for 100% foot slips. A score of 3 was given for traversal with the affected limb extended and not reaching the surface of the beam. A score of 2 was given when the animal was able to balance on the beam but not traverse it. A score of 1 was given when the animal could not balance on the beam. Three trials were recorded 1 hour before CCI (baseline), and each day after CCI. Mean values of latency and score for each day were computed.

IL-1β mRNA = assay: Real-time quantitative RT-PCR, IL-1β mRNA after CCI injury; format: in vivo, rat; conditions: single-dose 30 mg kg^-1 i.p.; ipsilateral cortex, 6 h after injury; P<0.01
Procedure: A previously described CCI injury procedure was utilized (Chen et al., 2003). Male Sprague-Dawley rats, which have body weight of 250-300 g, were anaesthetized with sodium pentobarbital (i.p.; 50 mgkg^−1; Rhone Merieux, Harlow, UK) and placed in a stereotaxic frame. A 5-mm craniotomy was performed over the left parietal cortex, centered on the coronal suture and 3 mm lateral to the sagittal suture. Considerable care was taken to avoid injury to the underlying dura. Injury was made using a pneumatic piston with a rounded metal tip (2.5 mm diameter) that was angled 22.5° C. to the vertical so that the tip was perpendicular with the brain surface at the centre of the craniotomy. A velocity of 4 ms^−1 and a deformation depth 2 mm below the dura were used. […] Body temperature was monitored throughout the surgery by a rectal probe; temperature was maintained at 37.0±0.5° C. using a heated pad. […] Testing after injury was as follows: (1) real-time quantitative RT-PCR analysis for TNF-α, IL-1β and IL-6 mRNA expression at 6 h post-injury (n=7 for each group); (2) FluoroJade B (FJB) staining, TNF-α, IL-1β and IL-6 immunohistochemistry, as well as ELISA at 24 h post-injury to assess degenerative neurons and to determine cytokine expression (n=7 for each group). […] Approximately 50 mg tissue was collected from the ipsilateral (injured) hemisphere and processed for real-time quantitative RT-PCR. […]

O=c1cc(-c2ccccc2)oc2cc(O)c(O)c(O)c12 [baicalein]
differences in hindlimb motor scores between single-dose and multiple-dose groups ([1]; 30 mg kg^-1 i.p., any testing day, P>0.05): not significant | beam walk latencies, multiple-dose versus single-dose group ([1]; 30 mg kg^-1 i.p., days 1 and 4, P<0.05): significantly shorter | beam walk latencies versus vehicle group ([1]; multiple-dose 30 mg kg^-1 i.p. daily for 4 days, days 1, 4, 7, 21 and 28, P<0.05): significantly shorter | decrease in hindlimb motor scores (beam walk) versus vehicle group ([1]; multiple-dose 30 mg kg^-1 i.p. daily for 4 days, days 1, 4, 14, 21 and 28, P<0.05): significantly different | decrease in hindlimb motor scores (beam walk) versus vehicle group ([1]; single-dose 30 mg kg^-1 i.p., days 4, 7, 14 and 21, P<0.05): significantly different | beam walk latencies versus vehicle group ([1]; single-dose 30 mg kg^-1 i.p., days 4 and 21, P<0.05): significantly shorter | IL-1β mRNA level, % of level in vehicle-treated injured rats (IL-1β mRNA): 63%
